This is an account of results in ChEMBL document CHEMBL1157539, “Thousands of chemical starting points for antimalarial lead identification” (Nature, 2010).

SMILES strings stand for the structures.

For this assay, the system named is Plasmodium falciparum. In words: GSK_TCMDC: Inhibition of Plasmodium falciparum 3D7 in whole erythrocytes, using parasite LDH activity as an index of growth. The format is functional, organism-based. The conditions noted are these: Plasmodium falciparum, 3D7.
Turning to `O=C1NC(=S)N/C1=C/C=C/c1ccc([N+](=O)[O-])o1`, the XC50 came out at 1070 nM.
The figure for `Cc1cc(N/N=C/c2ccc([N+](=O)[O-])cc2)c2ccc(F)cc2n1` is 888 nM.
The figure for `Cc1cc(=O)c(-c2ccc(Oc3ccc(OC(F)(F)F)cc3)cc2)c(C)[nH]1` is 363 nM; for `c1cncc(CCNCc2ccc(-c3ccc(CNC4Cc5ccccc5C4)cc3)cc2)c1` it is 1090 nM; for `Cc1noc(C)c1S(=O)(=O)N(C)Cc1ccc(-c2ccc(Cl)cc2)o1` it is 362 nM.
For the compound `CCOc1ccc(CN(CCc2ccc3c(c2)OCO3)Cc2cc(OC)ccc2O)cc1`, the XC50 was 753 nM.
The figure for `CC(=O)Nc1ccccc1OCc1cc2cc(C(=O)N3CCC(N4C(=O)OCc5ccccc54)CC3)ccc2o1` is 236 nM; for `CCN(CCCN1CCCCC1)c1cc(C)nc(Nc2cc(C(F)(F)F)ccc2C)n1` it is 862 nM; for `NS(=O)(=O)CCc1cccc(Nc2nccc(-c3c(-c4cccc(NC(=O)c5c(F)cccc5F)c4)nn4ccccc34)n2)c1` it is 58.4 nM.
For `CNS(=O)(=O)c1ccc2c(c1)nc(C1CCN(CC3CCC(NC(=O)/C=C/c4ccc(Cl)c(Cl)c4)CC3)CC1)n2C` (stereo not given), the XC50 came out at 670 nM.
`O=C(NCCc1cccc(F)c1)c1ccc(N2CCN(c3ccncc3)CC2)cn1`: the XC50 stood at 1020 nM.
For `CC(C)NCc1ccc(-c2ccc(NC(=O)c3cccc(Cl)c3)cc2)cc1` the value was 962 nM; for `COc1cc(NCCCNCc2cn(Cc3cc(Br)cc(Br)c3)c3ccccc23)nc2ccccc12`, 185 nM.
The figure for `O=C(Nc1cccc(C(F)(F)F)c1)c1cccc(S(=O)(=O)NCC2CCCN(Cc3ccccc3)C2)c1` (stereo not given) is 1100 nM; for `Clc1ccc(CNc2ccnc(NCc3ccc4c(c3)OCCCO4)n2)c(Cl)c1` it is 994 nM; for `Cc1ccccc1OCC(O)CNC1CCC(NCC(O)COc2ccccc2C)CC1` (stereo not given) it is 1190 nM.
Compound `O=C(Nc1ccc(C(F)(F)F)cc1)c1cccc(S(=O)(=O)NCC2CCCN(CC3CCCCC3)C2)c1` (stereo not given) showed an XC50 of 750 nM.
The figure for `Cc1cc(N[C@@H](Cc2ccccc2)C(=O)NCc2cccs2)nc(Nc2ccccc2)n1` is 1240 nM.
The figure for `CNCCCCCCc1ccc(CC(C)NCC(O)c2cccc(Cl)c2)cc1` (stereo not given) is 854 nM.
The figure for `Oc1cc(Nc2ccnc3cc(I)ccc23)c(F)cc1Cl` is 832 nM.
For the compound `CN(CCCN(C)c1cc(NC(=O)c2cccc(F)c2)ccn1)Cc1cccc(O)c1`, the XC50 came to 1920 nM.
In turn, `N#Cc1ccc(N(CCOC(=O)c2ccc(Br)s2)Cc2ccccc2C(F)(F)F)cc1C(F)(F)F` showed an XC50 of 1070 nM.
For `NS(=O)(=O)c1cncc(-c2ccc3nccc(-c4cn[nH]c4)c3n2)c1` the value was 526 nM; for `CCCCCCN(C(=O)OCc1ccccc1)C1CCN(C(=O)OC(C)(C)C)CC1C(=O)OCC` (stereo not given), 366 nM.
For `COCc1nc(N)nc(N)c1-c1ccc(Cl)c(Cl)c1` the value was 1020 nM; for `COc1cc(OC)nc(C(Sc2ccc(NC(=O)c3cccs3)cc2)c2ccccc2)n1` (stereo not given), 57.5 nM.
Compound `Cc1ccccc1C1CCN(C2CCC(NC(=O)c3cc4cc(Cl)ccc4o3)CC2)CC1` (stereo not given) came in with an XC50 of 1200 nM.
In the case of `COc1ccc2ncc(F)c(CCN3CCC4(CC3)COC(c3cc5c(cn3)OCCO5)=N4)c2n1`, the XC50 was found to be 216 nM.
The figure for `Cc1cc(-c2nc3ccc(CN4CCN(C)CC4)cc3[nH]2)nn1Cc1cc(Cl)ccc1OCc1ccccc1` is 1120 nM; for `O=C(N[C@H]1CCN(Cc2ccc(OCCCN3CCCCC3)cc2)C1)c1ccc(Oc2ccccc2)cc1` it is 784 nM.
The figure for `Cc1ccc2[nH]c(-c3ccc(C=CC(=O)NCc4ccc(Cl)c(Cl)c4)cc3)nc2c1` is 901 nM.
For `Cc1cccc2nc(-c3ccc(-c4cccc(CN5CCCC(N)C5)c4)s3)[nH]c12` (stereo not given) the value was 539 nM; for `Cc1cccc(Nc2nc(C)cc(N3CCCN(CC4CCCCC4)CC3)n2)c1`, 1120 nM.
`COc1cc(Cc2cnc(N)nc2N)cc(OCc2cccc(C(=O)O)c2)c1OC` yielded an XC50 of 835 nM.
For `N#Cc1ccc(CNCCCCCCCNCc2ccc(-c3ccccc3)cc2)cc1` the value was 970 nM; for `CCCCOC(=O)C1=C(C)NC2=C(C(=O)CCC2)C1c1ccc(OC)c(Br)c1` (stereo not given), 603 nM; for `COc1cc(NC(=O)/C=C/c2cccc3ccoc23)ccc1OCCN(C(C)C)C(C)C`, 1040 nM.
Turning to `Cc1[nH]cnc1CSCCNC(=N)NCCCCCCCCNC(=N)NCCSCc1nc[nH]c1C`, the XC50 was determined as 268 nM.
The figure for `CC(Nc1ccc2c(c1)OCCO2)C(=O)Nc1cc(C(F)(F)F)ccc1N1CCOCC1` (stereo not given) is 408 nM; for `CN1CCCN(Cc2cccc(-c3ccc(NS(=O)(=O)c4cccc5cccnc45)cc3)c2)CC1` it is 957 nM.
For `FC(F)(F)c1ccc2[nH]c(-c3cccc(-c4ccc(CNCc5ccccc5)cc4)c3)nc2c1` the value was 163 nM; for `O=C(Nc1cccc(-c2ccc(CN3CCCC3)cc2)c1)c1cccc(Cl)c1`, 430 nM.
`CC1CC(C)CN(S(=O)(=O)c2cc(C(=O)Nc3cccc([N+](=O)[O-])c3)ccc2Br)C1` (stereo not given) gave an XC50 of 898 nM.
The compound `N#Cc1ccc(C(=O)Nc2cccc(-c3ccc(CN4CCCC4)cc3)c2)cc1` showed an XC50 of 723 nM.
For `CN(C)c1c(CNCCCCCCNCc2ccc3ccccc3c2N(C)C)ccc2ccccc12` the value was 463 nM.
Consider `O=C(Cc1ccccc1)NC(CCN1CCC(N(C2CC2)S(=O)(=O)c2cccc(C(F)(F)F)c2)CC1)c1ccc(Cl)c(Cl)c1` (stereo not given), for which the XC50 came out at 1270 nM.
Turning to `CCN(CC)CCNC(=O)c1ccc(NC(=O)c2cc3c(C)nn(-c4ccc(Cl)cc4)c3s2)cc1`, the XC50 turned out to be 253 nM.
The figure for `CCCCCC(C)C(C)c1cc(O)c2c3c(c(=O)oc2c1)CN(Cc1ccccc1)CC3` (stereo not given) is 605 nM; for `CC(C)C[C@H](NC(=O)c1cc2ccccc2s1)C(=O)N[C@H]1CCN(Cc2ccc(OCCCN(C)C)c(Cl)c2)C1` it is 901 nM; for `COc1ccc2nccc([C@@H](O)CN3CCC(NCc4cc5oc(=O)[nH]c5cc4Cl)CC3)c2c1` it is 380 nM.
For `Fc1ccc2[nH]c(-c3cccc(-c4cccc(CNCc5cnn(-c6ccccc6)n5)c4)c3)nc2c1` the value was 971 nM; for `COc1ccc2nc3cc(Cl)ccc3c(Nc3ccc(C(=O)O)cc3)c2c1`, 301 nM; for `CS(=O)(=O)Cc1ccc(Nc2nccc(-c3c(-c4cccc(NC(=O)c5c(F)cccc5F)c4)nn4ccccc34)n2)cc1`, 150 nM.
For `Cc1cc(OCCCN2CCN(CCN3CCOCC3)CC2)ccc1NC(=O)COc1ccc(Cl)cc1C(=O)c1cc(Cl)cc(C#N)c1` the value was 697 nM; for `C[C@@H](N)C#Cc1cc2c(Nc3ccc(OCc4cccc(F)c4)c(Cl)c3)ncnc2s1`, 1060 nM; for `CCC(CC)(Cc1ccccc1)NC(=O)[C@H](CC(C)C)Nc1ccc(C#N)c2ccccc12`, 913 nM.
`Cc1n[nH]c2cc(F)c(-c3cc(OC[C@@H](N)Cc4ccccc4)cnc3-c3ccoc3)cc12` gave an XC50 of 1040 nM.
In turn, `CCOC(=O)NC1=NC(=N)N(OCCCOc2cc(Cl)c(Cl)cc2Cl)C(C)(C)N1` registered an XC50 of 3.2 nM.
`Cc1nc(-c2cccc(C(F)(F)F)c2)n2nc(Nc3ccc(OCCN4CCCC4)cc3)ncc12`: the XC50 came out at 751 nM.
For `N#Cc1ccc(-c2ccc(C(=O)NC3CCN(CCN4CCc5c(cccc5C(F)(F)F)C4)CC3)cc2)cc1` the value was 703 nM.
The figure for `O=C(Nc1cccc(-c2ccc(CN3CCC(O)CC3)cc2)c1)c1cccc(Cl)c1` is 764 nM; for `COc1ccc2nccc([C@@H](O)CN3CCC(NC(=O)Cc4cc5ccccc5s4)CC3)c2c1` it is 906 nM; for `CCc1cn2c3c(cc(C(=O)N[C@@H](Cc4ccccc4)[C@H](O)CNC4CCOCC4)cc13)N(C(C)C)S(=O)(=O)CC2` it is 83.6 nM.
The figure for `NC(=O)C1CCN(Cc2cccc(-c3cccc(-c4nc5cc(F)ccc5[nH]4)c3)c2)CC1` is 853 nM; for `CC1CN(c2cc(=O)n(Cc3ccc(NC(=O)Nc4ccc(-c5ccccc5)cc4)cc3)cn2)CC(C)N1` (stereo not given) it is 974 nM; for `O=C(/C=C/c1ccc(Cl)c(Cl)c1)NCCCCCN1CCC(C(=O)Nc2cccc(Cl)c2)CC1` it is 681 nM.
`COc1ccc(CCNCc2ccc3nc(N)cc(C)c3c2)cc1` had an XC50 of 214 nM.
`CC(C)CCCC(C)NC[C@@H](O)[C@H](Cc1ccccc1)NC(=O)c1cc(N2CCCC2=O)cc(N(c2ccccc2)S(C)(=O)=O)c1` (stereo not given in full) yielded an XC50 of 58.4 nM.
For `N#Cc1ccc(-c2ccc(C(=O)NCCCCN3CCC(c4ccc5c(c4OCC(N)=O)CCCC5)CC3)nc2)cc1` the value was 730 nM.
For `O=C(NCC1CCC(CNCCCc2ccccc2)CC1)Nc1ccc(Cl)c(Cl)c1` (stereo not given) the value was 767 nM; for `CN(C(=O)Cc1ccc(Cl)cc1)C1CCN(CCCCCNC(=O)/C=C/c2ccc(Cl)c(Cl)c2)CC1`, 719 nM; for `O=C(NCCCc1ccccc1)c1csc(C2CCCN(C(=O)c3ccc(O)c(-c4ccccc4)c3)C2)n1` (stereo not given), 913 nM.
For `c1ccc(CCNCc2ccc(-c3ccc(CNc4ccc5ncccc5c4)cc3)cc2)cc1` the value was 916 nM; for `Cc1[nH]c2ccccc2c1C1=CCN(CCCCCNC(=O)/C=C/c2ccc(Cl)c(Cl)c2)CC1`, 272 nM.
As to `O=C(NCc1ccccc1)NC1CCN(c2ccnc3cc(Cl)ccc23)C1` (stereo not given), the XC50 was found to be 158 nM.
The compound `CC(C)Cn1ccc2c3c(N)nc(N)nc3ccc21` showed an XC50 of 34.2 nM.
Turning to `C/C=C1/CN2CC[C@H]1C[C@H]2[C@H](O)c1ccnc2ccc(OC)cc12`, the XC50 amounted to 199 nM.
The compound `O=C(NCCc1ccc(F)cc1)c1ccc(N2CCN(c3ccncc3)CC2)nc1` returned an XC50 of 1420 nM.
In the case of `O=c1cc(NCCCCNCc2cccc(Cl)c2)[nH]c2ccccc12`, the XC50 turned out to be 743 nM.
For `Cc1cc2ncn(-c3nccc(NCc4ccc(F)cc4)n3)c2cc1C` the value was 886 nM.
Take `Cc1cc(-c2ccc3c(c2)CC[C@@H](N[C@@H](C)c2ccccc2)C3)cnc1N`: the XC50 was 1730 nM.
For `Cc1ccc(-c2nc3ccccc3o2)cc1NCc1cc(Cc2ccccc2)ccc1O` the value was 1030 nM; for `CN(C)c1ccc(-c2csc(C(=O)NCC3CCN(Cc4ccc(C(C)(C)C)cc4)C3)c2)cc1` (stereo not given), 986 nM.
In turn, `O=c1cc(NCCCNCc2csc(Br)c2Sc2ccc(Cl)cc2)[nH]c2ccccc12` had an XC50 of 849 nM.
For `O=C(N[C@H]1CCN(CCc2ccc(O[C@H]3CCNC3)c(Br)c2)C1)c1ccc(Cl)c(Cl)c1` the value was 658 nM.
